What was measured:
[1] = molecular target: T1, His6-TEV-PPARγ-(234-505) (Homo sapiens, UniProt P37231); test: TR-FRET Assay to Measure Co-R Peptide Recruitment to PPARγ; type: biochemical; conditions: Co-R peptide (SMRT-ID2) recruitment; top final concentration 20 μM; read-out: TR-FRET i-Ag; AC50
T1 construct: The His6-TEV-PPARγ-(234-505) protein for assay was expressed and purified; TEV cleavage site (N); made in house
T1 sequence (P37231 234-505): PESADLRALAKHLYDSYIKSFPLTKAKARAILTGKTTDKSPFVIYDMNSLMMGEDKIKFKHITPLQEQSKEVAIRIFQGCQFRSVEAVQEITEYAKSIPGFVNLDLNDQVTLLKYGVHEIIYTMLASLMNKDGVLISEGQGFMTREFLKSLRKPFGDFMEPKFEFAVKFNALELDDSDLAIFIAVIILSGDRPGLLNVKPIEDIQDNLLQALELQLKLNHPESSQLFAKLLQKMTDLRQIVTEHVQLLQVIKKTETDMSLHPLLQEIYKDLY
Procedure, shortened: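 Corepressor recruitment is measured by adding terbium-labeled anti-His antibody and FITC SMRT-ID2 peptide, at 5 and 200 nM final, after a 20-minute room-temperature protein–compound incubation. After one further hour, signal is converted to percent response between DMSO and 500 nM T0070907 wells.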

[2] = test system: UM-UC-9 engineered cells; test: Cell proliferation / short-term viability assay, CellTiter-Glo 144 h; type: cell-based, human; conditions: Homo sapiens, UM-UC-9, 144 h, read-out: CTGlo 144 h UMUC9.5, G150
Procedure, shortened: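 Viability read by CellTiter-Glo 2.0 luminescence at day 7 versus DMSO-vehicle wells and a T0 plate measured on day 0. Cells: UM-UC-9 engineered assay-ready stocks, 500 cells/well in high-glucose DMEM with 10% FBS, 37° C, 5% CO2.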

Structure (SMILES)	AC50 [1] [nM]	IC50 [2] [nM]
COc1cc(-c2cc(C(=O)N3CCC(C(=O)NCc4cn5c(C)cccc5n4)CC3)n[nH]2)c(Cl)cn1 [Example 210, 1-(5-(5-chloro-2-methoxypyridin-4-yl)-1H-pyrazole-3-carbonyl)-N-((5-methylimidazo[1,2-a]pyridin-2-yl)methyl)piperidine-4-carboxamide]	259	1680
COc1cc(-c2cc(C(=O)N3CCC(C(=O)NCc4ncc(C(F)(F)F)cn4)CC3)n[nH]2)c(Cl)cn1 [Example 211, 1-(5-(5-chloro-2-methoxypyridin-4-yl)-1H-pyrazole-3-carbonyl)-N-((5-(trifluoromethyl)pyrimidin-2-yl)methyl)piperidine-4-carboxamide]	462	3260
COc1cc(-c2cc(C(=O)N3CCC(C(=O)NCc4cc5cc[nH]c5cn4)CC3)n[nH]2)c(Cl)cn1 [Example 212, N-((1H-pyrrolo[2,3-c]pyridin-5-yl)methyl)-1-(5-(5-chloro-2-methoxypyridin-4-yl)-1H-pyrazole-3-carbonyl)piperidine-4-carboxamide]	79.2	782
COc1cc(-c2cc(C(=O)N3CCC(C(=O)NCc4cn5cccc(F)c5n4)CC3)n[nH]2)c(Cl)cn1 [Example 214, 1-(5-(5-chloro-2-methoxypyridin-4-yl)-1H-pyrazole-3-carbonyl)-N-((8-fluoroimidazo[1,2-a]pyridin-2-yl)methyl)piperidine-4-carboxamide]	194	1590
COc1cc(-c2cc(C(=O)N3CCC(C(=O)NCc4ccc5[nH]c(C)nc5c4)CC3)n[nH]2)c(Cl)cn1 [Example 215, 1-(5-(5-chloro-2-methoxypyridin-4-yl)-1H-pyrazole-3-carbonyl)-N-((2-methyl-1H-benzo[d]imidazol-5-yl)methyl)piperidine-4-carboxamide]	265	> 5000
COc1cc(-c2cc(C(=O)N3CCC(C(=O)NCC4(C)OCCCO4)CC3)n[nH]2)c(Cl)cn1 [Example 216, 1-(5-(5-chloro-2-methoxypyridin-4-yl)-1H-pyrazole-3-carbonyl)-N-((2-methyl-1,3-dioxan-2-yl)methyl)piperidine-, 1-carboxamide]	697	3100
COc1cc(-c2cc(C(=O)N3CCC(C(=O)NCc4cn5cc(C)ccc5n4)CC3)n[nH]2)c(Cl)cn1 [Example 217, 1-(5-(5-chloro-2-methoxypyridin-4-yl)-1H-pyrazole-3-carbonyl)-N-((6-methylimidazo[1,2-a]pyridin-2-yl)methyl)piperidine-4-carboxamide]	309	3630
COc1cc(-c2cc(C(=O)N3CCC(C(=O)NCc4nn(C)c5ccccc45)CC3)n[nH]2)c(Cl)cn1 [Example 218, 1-(5-(5-chloro-2-methoxypyridin-4-yl)-1H-pyrazole-3-carbonyl)-N-((1-methyl-1H-indazol-3-yl)methyl)piperidine-4-carboxamide]	13.8	138
COc1cc(-c2cc(C(=O)N3CCC(C(=O)NCc4cn5cc(Cl)ccc5n4)CC3)n[nH]2)c(Cl)cn1 [Example 219, 1-(5-(5-chloro-2-methoxypyridin-4-yl)-1H-pyrazole-3-carbonyl)-N-((6-chloroimidazo[1,2-a]pyridin-2-yl)methyl)piperidine-4-carboxamide]	94.5	1610
COc1cc(-c2cc(C(=O)N3CCC(C(=O)NCc4ncoc4C(F)(F)F)CC3)n[nH]2)c(Cl)cn1 [Example 221, 1-(5-(5-chloro-2-methoxypyridin-4-yl)-1H-pyrazole-3-carbonyl)-N-((5-(trifluoromethyl)oxazol-4-yl)methyl)piperidine-4-carboxamide]	279	1730
COc1cc(-c2cc(C(=O)N3CCC(C(=O)NCc4ccc5c(c4)ncn5C)CC3)n[nH]2)c(Cl)cn1 [Example 223, 1-(5-(5-chloro-2-methoxypyridin-4-yl)-1H-pyrazole-3-carbonyl)-N-((1-methyl-1H-benzo[d]imidazol-5-yl)methyl)piperidine-4-carboxamide]	628	> 10000
COc1cc(-c2cc(C(=O)N3CCC(C(=O)NCc4cc(C(F)F)on4)CC3)n[nH]2)c(Cl)cn1 [Example 225, 1-(5-(5-chloro-2-methoxypyridin-4-yl)-1H-pyrazole-3-carbonyl)-N-((5-(difluoromethyl)isoxazol-3-yl)methyl)piperidine-4-carboxamide]	327	1720
COc1cc(-c2cc(C(=O)N3CCC(C(=O)NCc4ccc5cc[nH]c5n4)CC3)n[nH]2)c(Cl)cn1 [Example 226, N-((1H-pyrrolo[2,3-b]pyridin-6-yl)methyl)-1-(5-(5-chloro-2-methoxypyridin-4-yl)-1H-pyrazole-3-carbonyl)piperidine-4-carboxamide]	42.8	427
COc1cc(-c2cc(C(=O)N3CCC(C(=O)NCc4ccc5oc(=O)n(C)c5c4)CC3)n[nH]2)c(Cl)cn1 [Example 228, 1-(5-(5-chloro-2-methoxypyridin-4-yl)-1H-pyrazole-3-carbonyl)-N-((3-methyl-2-oxo-2,3-dihydrobenzo[d]oxazol-5-yl)methyl)piperidine-4-carboxamide]	490	> 10000
COc1cc(-c2cc(C(=O)N3CCC(C(=O)NCc4ccc5cnn(C)c5c4)CC3)n[nH]2)c(Cl)cn1 [Example 229, 1-(5-(5-chloro-2-methoxypyridin-4-yl)-1H-pyrazole-3-carbonyl)-N-((1-methyl-1H-indazol-6-yl)methyl)piperidine-4-carboxamide]	70.6	614
COc1cc(-c2cc(C(=O)N3CCC(C(=O)NCC45CC(CCO4)C5)CC3)n[nH]2)c(Cl)cn1 [Example 230]	134	697
COc1cc(-c2cc(C(=O)N3CCC(C(=O)NCc4cnc5c(cnn5C)c4)CC3)n[nH]2)c(Cl)cn1 [Example 232, 1-(5-(5-chloro-2-methoxypyridin-4-yl)-1H-pyrazole-3-carbonyl)-N-((1-methyl-1H-pyrazolo[3,4-b]pyridin-5-yl)methyl)piperidine-4-carboxamide]	516	2150
COc1cc(-c2cc(C(=O)N3CCC(C(=O)N[C@H]4CCOc5ccc(C#N)cc54)CC3)n[nH]2)c(Cl)cn1 [Example 233, (S)-1-(5-(5-chloro-2-methoxypyridin-4-yl)-1H-pyrazole-3-carbonyl)-N-(6-cyanochroman-4-yl)piperidine-4-carboxamide]	196	3430
COc1cc(-c2cc(C(=O)N3CCC(C(=O)NCc4ccc5c(c4)CC(=O)N5C)CC3)n[nH]2)c(Cl)cn1 [Example 235, 1-(5-(5-chloro-2-methoxypyridin-4-yl)-1H-pyrazole-3-carbonyl)-N-((1-methyl-2-oxoindolin-5-yl)methyl)piperidine-4-carboxamide]	404	2360
COc1cc(-c2cc(C(=O)N3CCC(C(=O)NCc4ccc5c(c4)CCS5(=O)=O)CC3)n[nH]2)c(Cl)cn1 [Example 237, 1-(5-(5-chloro-2-methoxypyridin-4-yl)-1H-pyrazole-3-carbonyl)-N-((1,1-dioxido-2,3-dihydrobenzo[b]thiophen-5-yl)methyl)piperidine-4-carboxamide]	722	> 10000
COc1cc(-c2cc(C(=O)N3CCC(C(=O)NCc4nccc(C(F)F)n4)CC3)n[nH]2)c(Cl)cn1 [Example 238, 1-(5-(5-chloro-2-methoxypyridin-4-yl)-1H-pyrazole-3-carbonyl)-N-((4-(difluoromethyl)pyrimidin-2-yl)methyl)piperidine-4-carboxamide]	839	5160
COc1cc(-c2cc(C(=O)N3CCC(C(=O)NCc4cccc(C(F)F)n4)CC3)n[nH]2)c(Cl)cn1 [Example 239, 1-(5-(5-chloro-2-methoxypyridin-4-yl)-1H-pyrazole-3-carbonyl)-N-((6-(difluoromethyl)pyridin-2-yl)methyl)piperidine-4-carboxamide]	246	1400
COc1cc(-c2cc(C(=O)N3CCC(C(=O)NCc4ncc5c(n4)CCC5)CC3)n[nH]2)c(Cl)cn1 [Example 241, 1-(5-(5-chloro-2-methoxypyridin-4-yl)-1H-pyrazole-3-carbonyl)-N-((6,7-dihydro-5H-cyclopenta[d]pyrimidin-2-yl)methyl)piperidine-4-carboxamide]	880	3480
COc1cc(-c2cc(C(=O)N3CCC(C(=O)NCc4ccc5c(c4)C(C)(C)C(=O)N5)CC3)n[nH]2)c(Cl)cn1 [Example 242, 1-(5-(5-chloro-2-methoxypyridin-4-yl)-1H-pyrazole-3-carbonyl)-N-((3,3-dimethyl-2-oxoindolin-5-yl)methyl)piperidine-4-carboxamide]	74.2	1660
COc1cc(-c2cc(C(=O)N3CCC(C(=O)NCc4c(F)ccc5[nH]cnc45)CC3)n[nH]2)c(Cl)cn1 [Example 243, 1-(5-(5-chloro-2-methoxypyridin-4-yl)-1H-pyrazole-3-carbonyl)-N-((5-fluoro-1H-benzo[d]imidazol-4-yl)methyl)piperidine-4-carboxamide]	25.8	414

— patent US12606541B2, “PPARg modulators and methods of use” (Eisai R&D Management Co., Ltd., priority 2020, dated 2026)
